pIC50: −log10 of the molar value.
Key:
in vitro = conditions: mouse, pH 7.4; for half-life at 3 µM: microsomes; for Liver Microsomes % rem. @ 10 min. M: 3 µM
Description: Metabolic stability assay was performed at Emory University's Department of Chemistry or by Bristol Myers Squibb. The method used by Emory University's Department of Chemistry is described below.
Each method was developed in the presence of an internal standard (ISTD) d5-7-ethoxy coumarin. The column temperature was maintained at 40° C. for most of the samples otherwise noted. The detection was operated in the Agilent JetStream electrospray positive ionization using multiple reaction monitoring mode (MRM).
Other MS conditions were as follows: dwell time 100 ms; gas flow 10 L/min; nebulizer pressure 45 psi; delta EMV 200 V; fragmentor voltage and collision energy for individual compounds vary.
Test compounds were dissolved in 100% DMSO or 100% MeOH to make 10 mM stock solutions. Verapamil (Sigma Aldrich) aided as a positive control and was dissolved in 100% DMSO to make 10 mM stock solutions. The 10 mM stock solution of test and control compounds were further diluted in potassium phosphate buffer (100 mM, pH 7.4) to 500 μM to ensure the organic solvent content was <0.2%. Human liver microsomes (HLMs) were purchased from Xenotech at 20 mg/mL. NADPH (Sigma Aldrich) 10 mM stocks were prepared in deionized water.
The HLM assay was prepared in a 1.5 mL Eppendorf tube with a final volume of 1100 μL for duplicate runs. Each reaction contained phosphate buffer (928.4 μL), liver microsomes (55 μL), and test compound resulting in a final concentration of 3 μM (6.6 μL of 500 μM). The reaction was initiated with 110 μL of 10 mM NADPH. […] Before centrifugation each of the aliquoted tubes were vortexed to make sure compounds were in the solution. The aliquots were centrifuged at 12,000 g for 5 min and the supernatant removed and placed in an LC-MS vial. Each time point was assessed using LC-MS and the area, based on the extracted ion, was integrated with respect to the ISTD. […] A no-NADPH negative control with test or control compound was performed in a single run (150 μL) at the longest time point. Controls were processed and analyzed like the test compounds. Each time point was run in duplicates followed by in-between blank washes to avoid the carryover and to equilibrate the column.
The MLM assay was performed using the same procedures as those described above for the HLM assay.

CXCR4 = CXCR4 (Homo sapiens, UniProt P61073); test: Calcium flux assay (antagonist mode, SDF-1α challenge); assay type: cell-based; set-up: Eurofins or Bristol Myers Squibb (contract assay); conditions: read-out: CXCR4 Ca^+2 Flux IC50
Sequence of CXCR4 (P61073 whole entry): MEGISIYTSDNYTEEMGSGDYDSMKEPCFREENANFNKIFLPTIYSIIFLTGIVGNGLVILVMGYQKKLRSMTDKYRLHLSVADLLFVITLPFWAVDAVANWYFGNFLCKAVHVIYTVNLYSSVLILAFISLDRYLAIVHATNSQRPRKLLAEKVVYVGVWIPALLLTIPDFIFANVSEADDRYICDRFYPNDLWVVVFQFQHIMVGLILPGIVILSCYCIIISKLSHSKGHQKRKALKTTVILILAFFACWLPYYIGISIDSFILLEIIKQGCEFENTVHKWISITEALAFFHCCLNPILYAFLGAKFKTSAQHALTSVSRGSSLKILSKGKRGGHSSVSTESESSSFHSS
Description: Calcium flux assay was performed by Eurofins or Bristol Myers Squibb. The method used by Eurofins is described below.
Compound plate preparation: Vehicle controls and positive controls were prepared to ensure all assays were properly controlled. All wells were prepared using the Eurofins Discovery Services GPCRProfiler® Assay Buffer. The GPCRProfiler® Assay Buffer was a modified Hanks Balanced Salt Solution (HBSS) where HBSS was supplemented to contain 20 mM HEPES and 2.5 mM Probenecid at pH 7.4.
Agonist assay (first addition): Compound(s) supplied were plated in duplicate for each concentration assayed. During the agonist assay, the concentration(s) reflects accommodation for the dilution of compound during the antagonist assay. Please see below for further details. […] The reference agonist for each GPCR was included at Emax (the concentration where the reference agonist elicited a maximal response). The agonist assay was conducted on a FLIPR^TETRA instrument where the test compound(s), vehicle controls, and reference agonist were added to the assay plate after a fluorescence/luminescence baseline was established. The agonist assay was a total of 180 seconds and was used to assess each compound's ability to activate each GPCR assayed. Upon completion of the three minute agonist assay, the assay plate was incubated at 25° C. for a further two minutes. After the incubation period the antagonist assay was initiated.
The antagonist assay was conducted using the same assay plate that was used for the agonist assay. The antagonist assay was conducted on a FLIPR^TETRA instrument where vehicle controls and challenge concentration of reference agonist were added to appropriate wells. The antagonist assay was a total of 180 seconds and was used to assess each compound's ability to inhibit each GPCR assayed.
Data Processing—All plates were subjected to appropriate baseline corrections. Once baseline corrections were processed, maximum fluorescence/luminescence values were exported, and data manipulated to calculate percentage activation and percentage inhibition. […] Data manipulation calculation is as followed: ((Max RLU)−(Baseline Avg.))/((Positive Avg.)−(Baseline Avg.)).

CN1CCN(c2cccc3c2C[C@H](CN(C)[C@H]2CCCc4cccnc42)NC3)CC1=O [EMU-255, 1-methyl-4-((R)-3-((methyl((S)-5,6,7,8-tetrahydroquinolin-8-yl)amino)methyl)-1,2,3,4-tetrahydroisoquinolin-5-yl)piperazin-2-one]
half-life at 3 µM (in vitro): 17 min
pIC50 (CXCR4): 6.65

CN(C[C@H]1Cc2c(cccc2N2CCN3CCOC[C@H]3C2)CN1)[C@H]1CCCc2cccnc21 [EMU-343, (S)—N—(((R)-5-((R)-hexahydropyrazino[2,1-c][1,4]oxazin-8(1H)-yl)-1,2,3,4-tetrahydroisoquinolin-3-yl)methyl)-N-methyl-5,6,7,8-tetrahydroquinolin-8-amine]
Liver Microsomes % rem. @ 10 min. M (in vitro): 33.8%
pIC50 (CXCR4): 8.36

CN(C[C@H]1Cc2c(cccc2N2CCN(S(C)(=O)=O)CC2)CN1)[C@H]1CCCc2cccnc21 [EMU-263, (S)—N-methyl-N—(((R)-5-(4-(methylsulfonyl)piperazin-1-yl)-1,2,3,4-tetrahydroisoquinolin-3-yl)methyl)-5,6,7,8-tetrahydroquinolin-8-amine]
half-life at 3 µM (in vitro): 3 min
pIC50 (CXCR4): 6.51

CN(C[C@H]1Cc2c(cccc2N2CCNC(=O)C2)CN1)[C@H]1CCCc2cccnc21 [EMU-254, 4-((R)-3-((methyl((S)-5,6,7,8-tetrahydroquinolin-8-yl)amino)methyl)-1,2,3,4-tetrahydroisoquinolin-5-yl)piperazin-2-one]
half-life at 3 µM (in vitro): 35 min
pIC50 (CXCR4): 7.28

CN(C[C@H]1Cc2c(cccc2N2CC3COC2C3)CN1)[C@H]1CCCc2cccnc21 (stereo in doubt) [EMU-324, (S)—N—(((R)-5-((1S,4R)-2-oxa-6-azabicyclo[2.2.1]heptan-6-yl)-1,2,3,4-tetrahydroisoquinolin-3-yl)methyl)-N-methyl-5,6,7,8-tetrahydroquinolin-8-amine]
Liver Microsomes % rem. @ 10 min. M (in vitro): 36.9%
pIC50 (CXCR4): 7.51

CN1CCN(c2cccc3c2C[C@@H](CN(C)[C@H]2CCCc4cccnc42)NC3)C(=O)C1 [EMU-251, 4-methyl-1-((S)-3-((methyl((S)-5,6,7,8-tetrahydroquinolin-8-yl)amino)methyl)-1,2,3,4-tetrahydroisoquinolin-5-yl)piperazin-2-one]
half-life at 3 µM (in vitro): 126 min
pIC50 (CXCR4): 6.69

CCOC(=O)N1CCN(c2cccc3c2C[C@H](CN(C)[C@H]2CCCc4cccnc42)NC3)CC1 [EMU-261, ethyl 4-((R)-3-((methyl((S)-5,6,7,8-tetrahydroquinolin-8-yl)amino)methyl)-1,2,3,4-tetrahydroisoquinolin-5-yl)piperazine-1-carboxylate]
half-life at 3 µM (in vitro): 7.4 min
pIC50 (CXCR4): 6.00

CN1CCN(c2cccc3c2CC(CN(C)[C@H]2CCOc4cccnc42)NC3)CC1 (stereo partly drawn) [EMU-320, (4S)—N-methyl-N-((5-(4-methylpiperazin-1-yl)-1,2,3,4-tetrahydroisoquinolin-3-yl)methyl)-3,4-dihydro-2H-pyrano[3,2-b]pyridin-4-amine]
Liver Microsomes % rem. @ 10 min. M (in vitro): 91.6%
pIC50 (CXCR4): 7.89

CC(=O)N1CCN(c2cccc3c2C[C@H](CN(C)[C@H]2CCCc4cccnc42)NC3)CC1 [EMU-262, 1-(4-((R)-3-((methyl((S)-5,6,7,8-tetrahydroquinolin-8-yl)amino)methyl)-1,2,3,4-tetrahydroisoquinolin-5-yl)piperazin-1-yl)ethan-1-one]
half-life at 3 µM (in vitro): 5.5 min
pIC50 (CXCR4): 7.25
